Here are results for 1 molecule from patent US20090162495A1, “Derivatives of Di-Carbonyl Aromachemicals” (FLEXITRAL INC, priority 2005, published 2009).

Data set [1] is described as follows: vapor pressure of the adduct. The class given is physicochemical. Conditions: resulting in little or no odor. From the text: (§1) Diacetyl is known to form an adduct with sodium hydrogen sulfite [2-butanesulfonic acid, 2-hydroxy-3-oxo-, monosodium salt—CAS 13489-36-6]. See also French patent 2,845,903. This adduct is in equilibrium with the starting materials and, in practice, releases small amounts of diacetyl and sulfite continuously. The above-mentioned French patent discloses that the adduct is useful in hair care products as a straightening agent. The vapor pressure of the diacetyl adduct is negligible, thereby resulting in little or no odor. It is usually obtained and used in the form of a water-soluble salt, such as, e.g., an alkali metal (sodium) salt. Since it is water soluble, it can therefore be sprayed directly onto foodstuffs safely. The flavor imparted by the adduct is dominated by diacetyl, since at low concentrations, the sulfite taste and flavor is imperceptible.

Data set [2] is described as follows: water solubility of the adduct. The class given is physicochemical. The note with it: water-soluble salt, e.g. alkali metal (sodium) salt.
Text: as §1

As to `CC(=O)C(C)(O)S(=O)(=O)[O-].[Na+]` (centres unmarked) [diacetyl adduct, 2-butanesulfonic acid, 2-hydroxy-3-oxo-, monosodium salt], the vapor pressure entry in data set [1] is given as “negligible”. Also, the water solubility result in data set [2] was “water soluble”.
